Test results: patent publication US6858718B1, “Hydrogen production” (Melis Energy, priority 2001, dated 2005)
Entries after “also recorded” stand apart in the source; their conditions may differ. Where two headings read alike, the source gives them in different places.

Tests used:
[1] = system: iron hydrogenase from S. obliquus; assay: Biochemical data of purified iron hydrogenase, hydrogen evolution assay with reduced methyl viologen; design: species or system Scenedesmus obliquus
Description: (§1) The in vitro hydrogenase activity was measured by using a Hewlett Packard (HP 5890, Series II) gas chromatograph, equipped with a thermal conductivity detector and a molecular sieve column. Methyl viologen reduced by sodium dithionite was used as an electron donor. 1 unit is defined as the amount of hydrogenase evolving 1 mmol of molecular hydrogen (H2) per minute at 25° C.
40-liter cultures of Scenedesmus obliquus were grown heterotrophically. After centrifugation (10 min, 5000×g) the pellet we re-suspended in 200 ml TAP medium. The cells were anaerobically adapted by flushing the solution with argon for 1 hour in the dark. All further purification steps were performed in an anaerobic chamber (Coylab, Ann Arbor, Mich., USA). The cells were disrupted in a 50 mM Tris/HCl, buffer pH 8.0, 10 mM sodium dithionite by vortexing 3 min with glass beads. The further purification steps were made as described hereinbelow for the isolation of the Fe-hydrogenase of Chlamydomonas reinhardti. Automated Edman degradation of the N-terminal site of the protein was performed with an Applied Biosystem model 477A sequencer with online analysator model 120 A.
The N-terminal sequence of HydA was determined by Edman degradation.

[2] = system: iron hydrogenase from C. reinhardtii; assay: as above; design: species or system Chlamydomonas reinhardtii
Description: Hydrogenase activity of C. reinhardtii was determined in vitro with reduced methyl viologen using a gas chromatograph (Hewlett Packard 5890 Å Series II, column: molecular Sieve 5 Å, Mesh 60/80). The assay, containing in a final volume of 2 mL Pipes pH 6.8 (20 mM), Na2S2O4 (20 mM), MV (5 mM), was incubated anaerobically at 25° C. for 20 min. One unit is defined as he amount of hydrogenase evolving 1 μmol H2 per minute.
Cells from a 40-L culture of C. reinhardtii were harvested by ultra filtration through an Amicon Ultrafiltration System DC 10 LA, with a hollow-fiber filter. The pellet was resuspended in 200 mL TAP medium. After anaerobic adaptation by flushing the solution with argon for 1 h in the dark, all steps were performed under strictly anaerobic conditions. The isolated Fe-hyrogenase was chemically cleaved by cyanogen brormide (CNBr). After separation of he CNBr fragments on an SDS polyacrylamide gel, four peptides were blotted onto a poly(vinylidene difluoride) membrane and were sequenced. Automated Edman degradation was performed with an Applied Biosystem model 477 A sequencer with online analysator model 120 A.
To verify that the hydA ORF encodes the Fe-hydrogenase of C. reinhardtii, the enzyme was purified according to Happe and Naber (Eur. J. Biochem. 214,475-481 (1993)). The purified protein was able to evolve hydrogen, when incubated with reduced methyl viologen. After proteolytic digestion with cyanogen bromide, four bands of 4, 8, 9 and 11 kDa were detected after SDSIPAGE separation (data not shown). Two fragments (9 and 11 kDa) were sequenced by Edman degradation. […] The two fragment sequences are identical with he deduced amino-acid sequence of hydA (sequences are shadowed in gray in FIG. 6). The fragment corresponding to the cDNA region between 158 and 1636 bp of hydA was NdeI-BamHI cloned into the expression vector pET9a. The heterologous expressed protein was detected using antibodies raised against the Fe-hydrogenase. Both the purified Fe-hydrogenase of C. reinhardtii and the overexpressed enzyme had the same size (47.5 kDa). […] (ibid) who also detected no H2-production of the recombinant expressed Fe-hydrogenase from Desulfovibrio vulgaris in E. coli cells. An explanation might be the inability of E. coli to assemble the unique active site of the Fe-hydrogenases. It is known that E. coli has only three NiFe-hydrogenases with a different maturation system for the catalytic center.

H2-evolution = conditions: C. reinhardtii, stated as known; cited from earlier work
hydrogenase activity = assay: In vivo hydrogenase activity (H2 evolution) of anaerobically adapted cells in the presence of inhibitors of the photosynthetic electron flow; format: cell-based, Scenedesmus obliquus; conditions: for Effect on H2 photoproduction / hydrogenase activity (in words): S. obliquus cells after anaerobic adaptation
Description: (§2) The in vivo activity in the presence of different inhibitors of the photosynthetic electron flow was determined as described by Happe et al., in: European Journal of Biochemistry, 214, 475-481 (1993). After anaerobic adaptation, algal cells were harvested, diluted in fresh Tris acetate phosphate medium, and transferred to sealed tubes. Inhibitors were added 1 hour before H2 evolving activity was measured. Cells were broken by sonification. […] Ferrodoxin of both C. reinhardtii and S. obliquus was isolated according to the method of Schmitter et al. (Eur. J.l of Biochem., 172, pages 405-412 (1988)).
Hydrogenase activity was determined in intact and broken cells after anaerobic adaptation. […] This rate corresponds to 85% of the oxygen evolution measure with intact Scenedesmus cells.
In S. obliquus, the hydrogen evolution is linked to the photosynthetic electron transport chain through PSI. […] With reference to Table II, after anaerobic adaptation, cells were harvested, diluted in fresh, TAP medium, and incubated with inhibitors as described herein. α-PetF-antibody was raised against spinach ferredoxin. In Table II, DCMU=3-(3,4-dichlorophenyl)-1,1-dimethylurea; DBMIB=2,5-dibromo-3-methyl-6 isopropyl-p-benzochinone; Sulfo-DSPD=sulfodisalicylidinepropanediamin; DCPIP=2,6-dichlorophenolindophenol. The electron transport from PSI to ferredoxin was inhibited using the artificial electron acceptor DCPIP. In this reaction, DCPIP is reduced instead of ferredoxin and electron transfer to hydrogenase is interrupted.

[3] = system: purified S. obliquus hydrogenase; assay: Electron transfer properties of electron donors measured in vitro with dithionite as reducing reagent; format: biochemical, Scenedesmus obliquus; conditions: for H2-evolving activities: ferredoxin as electron donor, dithionite as reducing reagent
Description: as §1, §2
The electron transfer properties of different plant-type ferredoxins were measured in vitro with dithionite as a reducing reagent. […] In this assay, H2-evolving activities of 420, 390 and 350 U/mg protein with S. obliquus, C. reinhardtii and spinach ferredoxin, respectively, were observed. […] In D. desulfuricans, the Fe-hydrogenase has been reported to catalyze both hydrogen production and uptake with low potential multiheme cytochromes such as cytochrome c3.

[4] = Hydrogenase activity of lysate of induced E. coli cells expressing C. reinhardtii hydA; format: cell-based, Escherichia coli; conditions: lysate of the induced E. coli cells
Description: The hydA gene, corresponding to amino acids 57-497, was amplified, confirmed by sequences analysis and cloned into corresponding sites of he pET9a expression vector (Promega). The constructed plasmid was then ransformed into E. coli strain BL21(DE3). After induction with 1 mM isopropyl-thio-β-D-galactoside, the cells were resuspended in lysis buffer. Crude extracts from C. reinhardtii were isolated by harvesting cells after indicated anaerobic adaptation times. The pellet was resuspended in solubilization buffer and incubated with vigorous vortexing at RT for 30 min. The protein extracts from C. reinhardtii and E. coli were separated by 12% SDS/PAGE and blotted onto a poly(vinylidenedifluoride) membrane. Affinity-purified antibodies were diluted 1:200 and used for Western blot analyses.
To verify that the hydA ORF encodes the Fe-hydrogenase of C. reinhardtii, the enzyme was purified according to Happe and Naber (Eur. J. Biochem. 214,475-481 (1993)). […] After proteolytic digestion with cyanogen bromide, four bands of 4, 8, 9 and 11 kDa were detected after SDSIPAGE separation (data not shown). […] The heterologous expressed protein was detected using antibodies raised against the Fe-hydrogenase. […] (ibid) who also detected no H2-production of the recombinant expressed Fe-hydrogenase from Desulfovibrio vulgaris in E. coli cells. […]

[5] = Hydrogenase activity of lysate of induced E. coli cells expressing S. obliquus hydA; format: cell-based, Escherichia coli
[6] = broken cells, inhibitor 10^−5 M
[7] = intact cells, inhibitor 10^−5 M, added 1 hour before measurement
[8] = broken cells, inhibitor 10^−4 M
[9] = methyl viologen, read-out: KM value (MV)

With [C-]#[O+] [CO] the “Inhibition of the enzyme (in words)” value [1] was “strongly inhibited” and the “Inhibition of the enzyme (in words)” value [2] was “strongly inhibited”.

For CC1=C(Br)C(=O)C(C(C)C)=C(Br)C1=O [DBMIB, 2,5-dibromo-3-methyl-6 isopropyl-p-benzochinone], the “Effect on H2 photoproduction (in words)” value (H2-evolution) is listed as “no H2-evolution”, the “Effect on H2 photoproduction / hydrogenase activity (in words)” value (hydrogenase activity) is listed as “inhibition of the H2-production” and the Hydrogenase activity (hydrogenase activity; [6]) is listed as 0.006 Units/mg chlorophyll. For the same molecule, the Hydrogenase activity (hydrogenase activity; [7]) was 0.005 Units/mg chlorophyll.

In the case of CN(C)C(=O)Nc1ccc(Cl)c(Cl)c1 [DCMU, 3-(3,4-dichlorophenyl)-1,1-dimethylurea], the “Effect on H2 photoproduction (in words)” value (H2-evolution) is given as “still able to photoproduce hydrogen”, the “Effect on H2 photoproduction / hydrogenase activity (in words)” value (hydrogenase activity) is given as “still able to photoproduce hydrogen; also recorded: not influenced” and the Hydrogenase activity (hydrogenase activity; [6]) is given as 0.11 Units/mg chlorophyll. For the same molecule, the Hydrogenase activity (hydrogenase activity; [7]) was 0.10 Units/mg chlorophyll.

Molecule O=C1C(Cl)=CC(=Nc2ccc(O)cc2)C=C1Cl [DCPIP, 2,6-dichlorophenolindophenol] has a Hydrogenase activity (hydrogenase activity; [8]) of 0.003 Units/mg chlorophyll.

For NC(=O)C1=CN([C@@H]2O[C@H](COP(=O)(O)OP(=O)(O)OC[C@H]3O[C@@H](n4cnc5c(N)ncnc54)[C@H](OP(=O)(O)O)[C@@H]3O)[C@@H](O)[C@H]2O)C=CC1 [NADPH, reference compound], the “Hydrogen production with other possible electron donors (in words)” value ([3]; in vitro, purified S. obliquus hydrogenase) was “No hydrogen production”.

In the case of O=O [O2], the “Inhibition of the enzyme (in words)” value [1] is reported as “strongly inhibited”, the “Inhibition of the enzyme (in words)” value ([1]; listed as oxygen) is reported as “irreversibly inactivated” and the “Inhibition of the enzyme (in words)” value [2] is reported as “strongly inhibited”.

Work on “C. reinhardtii ferredoxin: plant-type [2Fe-2S] ferredoxin isolated from C. reinhardtii” yielded an H2-evolving activities [3] of 390 U/mg protein.

“spinach ferredoxin: plant-type [2Fe-2S] ferredoxin of spinach” showed an H2-evolving activities [3] of 350 U/mg protein.

With “sulfodisalicylidinepropanediamin [sulfo-DSPD]” the “Effect on H2 photoproduction / hydrogenase activity (in words)” value (hydrogenase activity) was “specifically blocked”, the “Reduction of hydrogenase activity” value (hydrogenase activity; S. obliquus, Table II) was “up to 30 fold” and the Hydrogenase activity (hydrogenase activity; [8]) was 0.003 Units/mg chlorophyll.

B1: C. reinhardtii iron hydrogenase: Fe-hydrogenase HydA from Chlamydomonas reinhardtii, mature polypeptide of 441 amino acids, SEQ. ID. NO. 5 precursor (protein)
chain: AAPAAEAPLSHVQQALAELAKPKDDPTRKHVCVQVAPAVRVAIAETLGLAPGATTPKQLAEGLRRLGFDEVFDTLFGADLTIMEEGSELLHRLTEHLEAHPHSDEPLPMFTSCCPGWIAMLEKSYPDLIPYVSSCKSPQMMLAAMVKSYLAEKKGIAPKDMVMVSIMPCTRKQSEADRDWFCVDADPTLRQLDHVITTVELGNIFKERGINLAELPEGEWDNPMGVGSGAGVLFGTTGGVMEAALRTAYELFTGTPLPRLSLSEVRGMDGIKETNITMVPAPGSKFEELLKHRAAARAEAAAHGTPGPLAWDGGAGFTSEDGRGGITLRVAVANGLGNAKKLITKMQAGEAKYDFVEIMACPAGCVGGGGQPRSTDKAITQKRQAALYNLDEKSTLRRSHENPSIRELYDTYLGEPLGHKAHELLHTHYVAGGVEEKDEKK
In the case of B1, the Km ([2]; ferredoxin, read-out: KM value (ferredoxin)) is reported as 35 µM, the Km [2, 9] is reported as 830 µM and the Specific activity ([2]; purified enzyme) is reported as 935 U/mg protein. For the same molecule, the pI value ([2]; purified enzyme) was 5.3 and the “Hydrogenase activity of lysate (in words)” value [4] was “No hydrogenase activity”.

B2: S. obliquus iron hydrogenase: monomeric iron hydrogenase (HydA) of 44.5 kDa from Scenedesmus obliquus, SEQ. ID. NO. 4; recombinant form expressed in E. coli (protein, listed as Scenedesmus obliquus)
chain: MPEWQPGGRYAVSVRPPVNRRAVVAAERRRLVVRAAGPTAECDCPPAPAPKAPHWQQTLDELAKPKEQRKVMIAQIAPAVRVAIAETMGLNPGDVTVGQMVTGLRMLGFDYVFDTLFGADLTIMEEGTELLHRLQDHLEQHPNKEEPLPMFTSCCPGWVAMVEKSNPELIPYLSSCKSPQMMLGAVIKNYFAAEAGAKPEDICNVSVMPCVRKQGEADREWFNTTGAGGANVDHVMTTAELGKIFVERGIKLNDLQETPFDNPVGEGSGGVLFGTTGGVMEAALRTVYEVVTQKPLDRIVFEDVRGLEGIKESTLHLTPGPTSPFKAFAGADGTGITLNIAVANGLGNAKKLIKQLAAGESKYDFIEVMACPGGCIGGGGQPRSADKQILQKRQAAMYDLDERAVIRRSHENPLIGALYEKFLGEPNGHKAHELLHTHYVAGGVPDEK
With B2 the Km [1, 9] was 800 µM, the Specific activity ([1]; purified enzyme) was 700 U/mg protein and the pI value ([1]; purified enzyme) was 5.17. The “Hydrogenase activity of lysate (in words)” value [5] was “no hydrogenase activity”.
